Source: patent US10988792B2, “Methods for antimicrobial resistance determination” (bioMerieux, Inc., priority 2009, dated 2021)

Test system: Twenty different strains of S. aureus (10 MRSA and 10 MSSA strains)
Experiment: BOCILLIN-FL binding to a panel of MRSA and MSSA strains
Conditions: signal Ex490_Em510 normalized to tryptophan Ex285_Em350; 50 μM BOCILLIN-FL (0.1 ml) + 0.9 ml strain, 30 minutes at 37° C. (FIG. 4)
Procedure: Twenty different strains of S. aureus (10 MRSA and 10 MSSA strains, confirmed with cefoxitin discs and Vitek-2) were propagated. A loopful of growth (1 μL) was removed from 24-hour plates and suspended in BacT/ALERT SA culture media (8 ml in a glass screw-capped tube). The tubes were vortexed well and incubated at 36° C. for 6 hours. The OD of each suspension was measured at 660 nm and adjusted to approximately the same density (0.50-0.75 OD; sample #12166 was only 0.28). 50 μM BOCILLIN™-FL (0.1 ml) was placed into each of 20 labeled microfuge tubes. A sample of each strain (0.9 ml) was added to each tube, mixed, and incubated at 37° C. for 30 minutes. The reaction mixture was then removed and added to a second set of tubes containing 0.2 ml of an oil blend (1.000 part type DF immersion oil plus 0.875 part Drakeol 5 mineral oil). The tubes were centrifuged for 2 minutes at 10,000 rpm in an A-8-11 rotor (Eppendorf 5417R). The supernatant and most of the oil was aspirated with a vacuum device. The remaining oil was removed using a Gilson P200 tip and the pellet was resuspended in 100 μl PBS. The cells were transferred to an acrylic cuvette containing 3 ml PBS and read in the FluoroLog 3 system using the FluoroScan “Bocillin” points listed in Table 3. Additionally, Vitek AST cards were run on each of the 20 isolates (from the same 24 hour plates).

BOCILLIN-FL bound by the five benzyl-penicillin sensitive strains versus the fifteen benzyl-penicillin resistant strains: over twice the amount
Compound: Cc1cc(C)n2c1C=C1C=CC(CCC(=O)Nc3ccc(OCC(=O)N[C@@H]4C(=O)N5[C@@H]4SC(C)(C)[C@@H]5C(=O)[O-])cc3)=[N+]1[B-]2(F)F.[Na+] [BOCILLIN™-FL]
